Assay results: patent publication US20230348371A1, “SULFONYLUREA DERIVATIVE AND MEDICAL USES THEREOF” (SHANGHAI SENHUI MEDICINE CO., LTD., priority 2020, published 2023)
Read-outs that look alike come from different tables or passages of the source.

Assays:
[1] = In vivo pharmacokinetics after single intravenous injection in SD rats (plasma); conditions: rat, single IV 5 mg/kg; for Vd: iv, 5 mg/kg; for MRT last: read-out: MRT(0-t); for MRT inf: read-out: MRT(0-∞)
Protocol: 1. […] The mixture was stirred or sonicated until completely dissolved to obtain a clear solution at a concentration of 1 mg/mL for administration by intravenous injection.
2. An appropriate amount of compound 3 or compound 6 was accurately weighed, and an appropriate volume of 5% DMSO+20% PG+20% PEG400+55% PBS (pH 8.0) was added thereto. The mixture was stirred or sonicated until completely dissolved to obtain a clear solution at a concentration of 1 mg/mL for administration by intravenous administration.
SPF grade SD rats, source: animals were transferred from the laboratory animal reserve bank (999M-017), Shanghai Sippe-Bk Lab Animal Co., Ltd.
3 rats/time point was set, blood samples were collected from the first 3 rats in each group, and cerebrospinal fluid and brain tissue were collected from the last 3 rats in each group. Blood sample: before administration and 5 min, 0.25 h, 0.5 h, 1 h, 1.5 h, 2 h, 4 h, 6 h, 8 h, 12 h and 24 h after administration. Tissue sample: cerebrospinal fluid and brain tissue were collected 10 min after administration.
Blood sample: blood was collected via jugular vein or other suitable means, and about 0.20 mL of blood was collected from each rat and added into an EDTA-K2 anticoagulation tube, which was then placed on ice after collection and centrifuged within 2 h for plasma separation (centrifugation conditions: 6800 g, 6 min, 2-8° C.). The collected plasma samples were stored in a refrigerator at −70° C. before analysis, and the residual plasma samples after analysis were still stored in the refrigerator at −70° C. for subsequent processing according to the requirements of the sponsor.
The concentration of each test compound in the plasma and tissue samples was determined. The accuracy of quality control samples was evaluated while analyzing the samples, and more than 66% of the quality control samples were required to have an accuracy between 80% and 120%.
The pharmacokinetic parameters such as AUC(0-t), T½, Cmax, Tmax and MRT were calculated from plasma concentration data at different time points using WinNonlin.
When plasma drug concentration-time curves were plotted, BLQ was recorded as 0. When the pharmacokinetic parameters were calculated, the concentration before administration was calculated as 0; BLQ before Cmax (including “No peak”) was calculated as 0; and BLQ that occurs after Cmax (including “No peak”) was excluded from the calculation.

SUR1 receptor = SUR1 receptor (Homo sapiens (Human), UniProt Q09428); test: Binding activity for SUR1 receptor ([3H]-Glibenclamide displacement, SUR1 membrane); conditions: SUR1 membrane protein, [3H]-Glibenclamide 2 nM, 37° C. 1 h
Protocol: The plate was incubated at 4° C. for 1 h. • f) The […]-96 GF/C and […]-96 GF/B plates were washed twice with Universal Harvester, each time with 50 mL of washing solution. • g) The SUR1 receptor reaction system was transferred to a […]-96 GF/B plate with Universal Harvester, and 900 μL of washing solution was added to each well to wash the GF/B plate 4 times. The washed […]-96 GF/B plate was dried in an oven at 55° C. for 10 min. • h) 40 μL of ULTIMA GOLD scintillation solution was added to each well, and the plate was read using Microbeta.

[2] = Sprague-Dawley (SD), read-out: Vss
[3] = Sprague-Dawley (SD), read-out: Vz

SUR1 receptor, sequence (Q09428 whole entry): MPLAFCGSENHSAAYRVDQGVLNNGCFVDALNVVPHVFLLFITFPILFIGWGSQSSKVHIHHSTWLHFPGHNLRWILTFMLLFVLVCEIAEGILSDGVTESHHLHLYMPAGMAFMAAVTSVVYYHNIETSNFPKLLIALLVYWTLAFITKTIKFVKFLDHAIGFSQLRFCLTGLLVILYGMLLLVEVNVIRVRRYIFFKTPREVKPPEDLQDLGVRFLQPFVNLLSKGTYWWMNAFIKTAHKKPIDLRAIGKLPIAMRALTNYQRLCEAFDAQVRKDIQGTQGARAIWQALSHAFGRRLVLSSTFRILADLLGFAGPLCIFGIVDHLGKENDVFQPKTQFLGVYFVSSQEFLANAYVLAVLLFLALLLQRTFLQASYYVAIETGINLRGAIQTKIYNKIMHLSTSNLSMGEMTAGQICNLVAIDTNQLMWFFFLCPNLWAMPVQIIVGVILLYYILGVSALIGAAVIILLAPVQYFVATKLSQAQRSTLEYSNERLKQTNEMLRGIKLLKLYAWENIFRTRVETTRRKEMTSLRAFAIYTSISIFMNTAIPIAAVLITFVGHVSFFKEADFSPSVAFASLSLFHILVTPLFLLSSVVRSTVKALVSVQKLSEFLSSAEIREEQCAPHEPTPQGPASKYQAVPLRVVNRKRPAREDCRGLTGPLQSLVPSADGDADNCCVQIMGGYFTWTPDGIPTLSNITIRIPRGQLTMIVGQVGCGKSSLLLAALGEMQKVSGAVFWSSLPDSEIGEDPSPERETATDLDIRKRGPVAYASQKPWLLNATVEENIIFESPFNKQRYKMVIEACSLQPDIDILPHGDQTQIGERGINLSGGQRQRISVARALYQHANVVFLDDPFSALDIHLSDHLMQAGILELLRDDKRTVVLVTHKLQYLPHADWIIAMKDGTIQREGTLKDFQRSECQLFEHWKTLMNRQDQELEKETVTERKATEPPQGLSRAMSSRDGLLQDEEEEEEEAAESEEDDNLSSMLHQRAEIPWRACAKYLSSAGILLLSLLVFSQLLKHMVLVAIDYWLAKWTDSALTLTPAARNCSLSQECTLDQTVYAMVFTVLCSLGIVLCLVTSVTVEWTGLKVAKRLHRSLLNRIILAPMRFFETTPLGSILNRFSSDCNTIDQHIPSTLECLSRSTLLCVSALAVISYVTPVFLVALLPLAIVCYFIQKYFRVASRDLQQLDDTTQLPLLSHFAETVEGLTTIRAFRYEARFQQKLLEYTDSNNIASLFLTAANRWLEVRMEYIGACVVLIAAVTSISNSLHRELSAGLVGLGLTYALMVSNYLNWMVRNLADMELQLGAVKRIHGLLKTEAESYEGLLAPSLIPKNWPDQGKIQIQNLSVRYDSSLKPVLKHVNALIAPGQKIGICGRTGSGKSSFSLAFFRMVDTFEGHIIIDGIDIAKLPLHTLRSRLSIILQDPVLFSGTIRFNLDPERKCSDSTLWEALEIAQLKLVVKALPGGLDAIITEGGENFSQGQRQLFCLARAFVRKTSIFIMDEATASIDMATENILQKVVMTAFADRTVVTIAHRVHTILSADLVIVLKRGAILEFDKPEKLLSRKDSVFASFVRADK

SMILES | Vd [1, 2] [L/kg] | Vd [1, 3] [L/kg] | AUC(0-inf) ([1]; Sprague-Dawley (SD)) [ng·h/mL] | AUC(0-t) ([1]; Sprague-Dawley (SD)) [ng·h/mL] | Cmax ([1]; Sprague-Dawley (SD)) [ng/mL] | Tmax ([1]; Sprague-Dawley (SD)) [min] | half-life ([1]; Sprague-Dawley (SD)) [h] | MRT last ([1]; Sprague-Dawley (SD)) [h] | MRT inf ([1]; Sprague-Dawley (SD)) [h] | IC50 (SUR1 receptor) [nM] | Vd ([1]; SD, read-out: Vss) [L/kg] | Vd ([1]; SD, read-out: Vz) [L/kg] | AUC(0-inf) [1] [ng·h/mL] | AUC(0-t) [1] [ng·h/mL] | Cmax [1] [ng/mL] | Tmax [1] [min] | half-life [1] [h] | MRT last [1] [h] | MRT inf [1] [h]
O=C(NC1CCCCC1)NS(=O)(=O)c1ccc(CCNC(=O)c2cc(Cl)ccc2O)cc1 [Compound 1, 5-chloro-N-(4-(N-(cyclohexylcarbamoyl)sulfamoyl)phenethyl)-2-hydroxybenzamide] | 0.219 ± 0.0263 | 1 ± 0.202 | 28700 ± 4700 | 28200 | 65000 ± 3630 | 6 | 3.9 ± 0.6 | 0.9 ± 0.3 | 1.2 ± 0.1 |  |  |  |  |  |  |  |  |  | 
O=C(NC1CCCCC1)NS(=O)(=O)c1ccc(CCNC(=O)c2cc(Cl)ccc2OC(F)(F)F)cc1 [Compound 3, 5-chloro-N-(4-(N-(cyclohexylcarbamoyl)sulfamoyl)phenethyl)-2-(trifluoromethoxy)benzamide] | 0.303 ± 0.0141 | 0.51 ± 0.0307 | 36400 ± 1170 | 35700 ± 1130 | 32800 ± 1530 | 6 | 2.6 ± 0.1 | 1.9 ± 0.1 | 2.2 ± 0.1 | 159 |  |  |  |  |  |  |  |  | 
COc1ccc(Cl)cc1C(=O)NCCc1ccc(S(=O)(=O)NC(=O)N[C@H]2CC[C@H](O)CC2)cc1 [Compound 4, 5-chloro-N-(4-(N-(((1r,4r)-4-hydroxycyclohexyl)carbamoyl)sulfamoyl)phenethyl)-2-methoxybenzamide] |  |  |  |  |  |  |  |  |  |  | 0.119 ± 0.0123 | 1.66 ± 1.73 | 13000 ± 1480 | 12900 ± 1460 | 39600 ± 4730 | 6 | 3.1 ± 3.4 | 0.3 ± 0.1 | 0.3 ± 0.1
COc1ccc(Cl)cc1C(=O)NCCc1ccc(S(=O)(=O)NC(=O)N[C@@H]2CCCC[C@H]2C#N)cc1 [Compound 6, 5-chloro-N-(4-(N-(((1R,2R)-2-cyanocyclohexyl)carbamoyl)sulfamoyl)phenethyl)-2-methoxybenzamide] | 3.44 ± 4.53 | 14.6 ± 19.1 | 4980 ± 288 | 4660 ± 259 | 11800 ± 1060 | 6 | 5.4 ± 2.1 | 0.7 ± 0.1 | 3.6 ± 4.8 | 37 |  |  |  |  |  |  |  |  | 
COc1ccc(C#N)cc1C(=O)NCCc1ccc(S(=O)(=O)NC(=O)NC2CCCCC2)cc1 [Compound 7, 5-cyano-N-(4-(N-(cyclohexylcarbamoyl)sulfamoyl)phenethyl)-2-methoxybenzamide] | 0.193 ± 0.0469 | 0.5 ± 0.16 | 28600 ± 7920 | 28500 ± 7930 | 42400 ± 8440 | 6 | 1.9 ± 0.2 | 1 | 1.1 | 6 |  |  |  |  |  |  |  |  | 
Cc1cnc(C(=O)NCCc2ccc(S(=O)(=O)NC(=O)NC3CCCCC3)cc2)cn1 [Glipizide, reference compound] |  |  |  |  |  |  |  |  |  | 230 |  |  |  |  |  |  |  |  | 
